Data set [1] is classed as physicochemical.
Data set [2] can be described thus: Stability at high temperature of the crystalline form. Type of data set: physicochemical. The conditions noted are these: up to its melting point.
Data set [3] in a line: Loss in mass (dehydration) of monohydrate form C at low humidity. The conditions noted are these: below 50% humidity and between 20° C. and 80° C.; 1 mole of water/mole of the acid. Type of data set: physicochemical. As for the experimental part: According to another aspect of the present invention, form A can also be obtained from another monohydrate crystalline form known hereinbelow as form C. Below 50% humidity and between 20° C. and 80° C., form C undergoes a loss in mass of 3.7% by weight (1 mole of water/mole of the acid). […] Form B is obtained more particularly by heating form C to 70° C. or from form C held at 25° C. at 0% humidity.

As for `COc1ccc2nccc([C@@H](O)CC[C@@H]3CCN(CCSc4cccs4)C[C@@H]3C(=O)O)c2c1` [Form A, (3R,4R)-4-[3-(S)-hydroxy-3-(6-methoxyquinolin-4-yl)propyl]-1-[2-(2-thienylthio)ethyl]piperidine-3-carboxylic acid], in data set [1] (solid crystalline form), the hygroscopicity entry is reported as “not hygroscopic”. Moreover, the state after storage result in data set [1] (storage at 97% relative humidity for 11 weeks at 20° C.) is “still anhydrous and stable”. Besides, the “stability at high temperature” value in data set [2] is on record as “stable at high temperature, namely up to its melting point”.

Take `COc1ccc2nccc([C@@H](O)CC[C@@H]3CCN(CCSc4cccs4)C[C@@H]3C(=O)O)c2c1` [Form C, (3R,4R)-4-[3-(S)-hydroxy-3-(6-methoxyquinolin-4-yl)propyl]-1-[2-(2-thienylthio)ethyl]piperidine-3-carboxylic acid]: the “loss in mass (dehydration to form B)” value in data set [3] came out at 3.7 % by weight.
